Columns and labels:
[1] = mouse, in vivo
[2] = mouse, in vivo; remark: listed apart in the source

## CCCCNc1ncc2c(-c3ccc(CN4CCN(C)CC4)cc3)cn([C@H]3CC[C@H](O)CC3)c2n1 [UNC2025A]
[1]
  oral bioavailability: orally bioavailable
[2]
  MTD (predicted dose in chow): 120 mg/kg

Source: patent US10004755B2 (priority 2014, dated 2018)
